From PubChem BioAssay (NCI)
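How tested: cells in 96-well plates exposed to compound for 48 hours at five concentrations. At the TGI there is no net growth.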

Columns and labels:
Assay in all cases: inhibition of tumour cell growth, NCI panel, 48 h
[1] = system: SK-MEL-2 melanoma
[2] = system: NCI-H522 lung
[3] = system: A498 renal
[4] = system: SN12C renal
[5] = system: NCI-H460 lung
[6] = system: OVCAR-5 ovarian
[7] = system: HCT-116 colon
[8] = system: CCRF-CEM leukemia
[9] = system: EKVX NSCLC
[10] = system: MDA-MB-435
[11] = system: SR leukemia
[12] = system: MOLT-4 leukemia
[13] = system: SF-295 CNS
[14] = system: UO-31 renal
[15] = system: T-47D breast
[16] = system: HS 578T breast
[17] = system: SNB-19 CNS
[18] = system: MCF7 breast
[19] = system: SF-268 CNS
[20] = system: M19-MEL melanoma

Compound | TGI [1] [µM] | TGI [2] [µM] | TGI [3] [µM] | TGI [4] [µM] | TGI [5] [µM] | TGI [6] [µM] | TGI [7] [µM] | TGI [8] [µM] | TGI [9] [µM] | TGI [10] [µM] | TGI [11] [µM] | TGI [12] [µM] | TGI [13] [µM] | TGI [14] [µM] | TGI [15] [µM] | TGI [16] [µM] | TGI [17] [µM] | TGI [18] [µM] | TGI [19] [µM] | TGI [20] [µM]
COc1ccccc1CCN1CCN(CCCc2ccccc2)CC1 | > 100 | > 100 | > 100 | > 100 | > 100 | > 100 | > 100 | > 100 | > 100 | > 100 | > 100 | > 100 | > 100 | > 100 | > 100 | > 100 | > 100 | > 100 | > 100 | –
CC1=C(C(=O)OCCO[N+](=O)[O-])C(c2cccc([N+](=O)[O-])c2)C(C(=O)OC(C)C)=C(C)N1 (centres undefined) | 28 | 34.9 | 46.8 | 36.4 | 34.4 | 30.4 | 22.2 | > 100 | 48.9 | 30.9 | > 100 | > 100 | 56.6 | 28.1 | 53.6 | 33.2 | 75.4 | 86.3 | 33 | –
CS(=O)(=O)OCCCCOS(=O)(=O)CF | > 100 | > 100 | > 100 | > 100 | > 100 | > 100 | > 100 | > 100 | > 100 | > 100 | > 100 | > 100 | > 100 | > 100 | > 100 | > 100 | > 100 | > 100 | > 100 | –
Cc1sc(Nc2ccc(Nc3nc(-c4ccccc4)c(C)s3)cc2)nc1-c1ccccc1 | 76.4 | > 100 | > 100 | > 100 | > 100 | > 100 | > 100 | > 100 | > 100 | > 100 | > 100 | > 100 | > 100 | > 100 | > 100 | > 100 | > 100 | 71.5 | > 100 | –
S=C1NCCN1 | > 100 | > 100 | – | > 100 | – | > 100 | > 100 | > 100 | > 100 | – | > 100 | > 100 | > 100 | > 100 | – | – | > 100 | – | > 100 | > 100
Cc1ccc(N=N/C(=N/NC(=O)c2cc(Cl)ccc2O)c2ccc(N(CCC#N)CCC#N)cc2C)cc1 | 68.4 | 31.4 | 49.5 | 85.6 | 68.8 | > 100 | 54.4 | > 100 | > 100 | > 100 | > 100 | > 100 | 83.3 | 64.9 | 56.2 | 46.4 | > 100 | > 100 | > 100 | –
CC(C)(C)c1cc(C(=O)/C=C/c2c(Cl)cccc2Cl)cc(C(C)(C)C)c1O | 26.4 | 17.5 | > 100 | > 75.2 | 24 | 35 | 23.2 | 22 | 63.3 | 54.4 | > 37 | > 56.5 | 42.2 | 28.1 | 18 | > 84 | 29.7 | 46 | > 58.9 | –
N=C(N)c1ccc(/C=C/c2ccc(C(=N)N)cc2)cc1 | 87.3 | > 100 | 73.7 | > 100 | > 100 | > 100 | > 100 | > 100 | > 100 | > 100 | > 100 | > 100 | > 100 | > 100 | > 100 | > 100 | > 100 | > 100 | > 100 | –
COc1cc2c(c(OC)c1O)-c1ccc(SC)c(=O)cc1C(NC(C)=O)CC2 (centres undefined) | > 5.54 | – | 30.9 | > 100 | > 11 | > 100 | 0.252 | > 100 | > 100 | – | > 100 | > 100 | 0.0868 | > 100 | – | – | > 100 | – | > 100 | > 100
O=C1C=Cc2c(Br)sc(Br)c21 | 70.3 | 68.2 | > 100 | > 100 | > 100 | > 100 | 77.1 | 11.3 | 81 | 46.1 | 75.2 | 36.8 | > 100 | 39.2 | 81.8 | > 100 | > 100 | > 100 | > 100 | –
CN1CCc2cc3c(c4c2C1C(O)c1ccccc1-4)OCO3 (centres undefined) | 21.7 | 13.7 | 8.45 | 11.1 | 11.9 | 44.4 | > 100 | 9.69 | 35.4 | 28 | 28.8 | 37.6 | 21.1 | 34 | > 100 | 19.5 | > 100 | 19.3 | 27.7 | –
C=Cc1nc2c(Cl)ncnc2n1Cc1ccccc1 | 26.3 | 3.83 | 22.4 | 17.5 | 23.6 | 30.5 | 4.72 | > 100 | 10.3 | 10.1 | > 33.4 | > 28.4 | 32.2 | 6.02 | 6.75 | 50.4 | 31.5 | 9.53 | 22.9 | –
